# According to PMC10385664, “Projection of Target Drug Particle Size in Oral Formulations Using the Refined Developability Classification System (rDCS)” (Pharmaceutics, 2023):
# System: Caco-2 cells
# Test: Caco-2 permeability assay (pH 6.5/7.4 gradient, ± elacridar)
# Settings: Caco-2, 10 µM, apical pH 6.5 / basolateral pH 7.4, 120 min, without inhibitor
# Description: In vitro permeability studies were performed at Cyprotex Discovery Ltd. (Macclesfield, UK) using a high-throughput Caco-2 permeability assay. Permeability at 37 °C was assessed from the apical to basolateral side (A⟹B) and in opposite direction (B⟹A) applying a pH gradient with pH 6.5 in the apical and pH 7.4 in the basolateral compartment (Hanks Balanced Salt Solution, HBSS). After an incubation of 120 min, samples were diluted for analysis via liquid chromatography coupled with tandem mass spectrometry (LC-MS/MS). […] Experiments were performed in absence and presence of the P-glycoprotein (P-gp) inhibitor elacridar (10 µM) to study transporter-mediated efflux effects. The dosing solutions contained the API (10 µM) in HBSS, and DMSO in a concentration of ≤1% v/v. Lucifer yellow (100 µM) was included as fluorescent integrity marker. Further experimental details are provided in Supplementary Materials.
# The apparent permeability coefficients (Papp) were calculated according to Equation (27):(27) Papp=dQ/dt/C0·A where dQ/dt is the permeation rate of the API across the cell monolayer, C0 is the starting concentration of the API in the dosing solution and A is the surface area of the cell monolayer. The efflux ratios (ERs) were calculated from the B⟹A and A⟹B Papp values to estimate whether P-gp mediated efflux was involved in the transport of the APIs. The mass balance (% recovery) was calculated from the sum of the API recovered from the acceptor and donor compartments at the end of the experiment, divided by the initial donor amount.
# Table S6. Gradient of the UPLC method for analysis of lemborexant.
# Table S7. Gradient of the UPLC method for analysis of istradefylline.
# S.2.5. rDCS Standard Investigations: Caco‐2 permeability studies
# Caco‐2 cells were obtained from the American Type Culture Collection (ATCC, Manassas, VA, USA) and used between passage numbers 40 to 60. The cells were seeded onto Millipore Multiscreen Transwell plates at a density of 1 x 10^5 cells/cm2 and cultured in Dulbeccoʹs Modified Eagleʹs Medium (DMEM). The medium was changed every two or three days. Ce l l culture was carried out at 37 °C in an atmosphere of 5 % CO2 with a relative humidity of 95 %. The permeability assay was performed on day 20.
# In vitro permeability was assessed wit h a high‐throughput Caco‐2 permeability assay. The assay was prepared by rinsing apical and basolateral monolayer surfaces twice with Hanks Balanced Salt Solution (HBSS) at the desired pH and 37 °C. Subsequently, cells in the apical and basolateral compartments were incubated with HBSS at the desired pH for 40 min. A pH gradient with pH 6.5 in the apical compartment and pH 7.4 in the basolateral compartment was applied. Dosing solutions containing the API (10 μ M) were prepared by diluting a concentrated API solution in DMS O with HBSS. The final DMSO concentration was ≤ 1% v/v. Lucifer yellow (100 μM) was included in the dosing solution as fluorescent integrity marker. For the assessment of the permeability from the apical to basolateral side (A⟹B), HBSS in the apical compartment was replaced with the dosing solution. The apical inserts were placed into a companion plat e containing fresh buffer with 1% v/ v DMSO. For the assessment of the permeability from the basolateral to […]
# apical side (B⟹A), HBSS was removed from the companion plate and replaced with the solution of drug in HBSS. Fresh HBSS was added to the apical insert, which was then placed into the companion plate.
# Experiments were performed in absence and presence of the P‐glycoprotein (P‐gp) inhibitor elacridar (10 μM) to study transporter‐mediated efflux effects. In those experiments, elacridar was included in both compartments during the equilibration time and assay. The starting concentration (C0) was confirmed by sampling from the dosing solution immediately before dosing into the cell pl ates. After incubation of 120 minutes, the apical inserts and companion plates were separated for sampling from both compartments.
structure (smiles),measurement,value
CC(C)NCC(O)COc1cccc2ccccc12 (stereo not shown) [propranolol],Papp(A⟹B),13.0 ± 0.7 ×10^−6 cm/s
